{"source": "ChEMBL document CHEMBL1201862", "about": "“PubChem BioAssay data set” (2004)", "key": {"[1]": {"assay": "decrease of insulin promoter-GFP reporter – imaging, high-content screening, mouse beta cells (AID 1628)", "type": "functional", "conditions": "MIN6"}, "[2]": {"assay": "MIN6 cell viability loss – mouse insulinoma, cytotoxicity control, dose response (AID 2122);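 further: confirmatory high-throughput counterscreen run to flag cytotoxic compounds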", "type": "functional"}, "[3]": {"assay": "THP-1 cell cytotoxicity, dose response, cytotoxicity control for non-replicating M. tuberculosis project (AID 489025)", "type": "functional"}, "Vero": {"test_system": "Vero", "assay": "cells", "type": "functional", "conditions": "Chlorocebus sabaeus"}, "[4]": {"assay": "HepG2 cell cytotoxicity, dose response, cytotoxicity control for non-replicating M. tuberculosis project (AID 489018)", "type": "functional", "conditions": "Mycobacterium tuberculosis"}, "[5]": {"assay": "Vero E6 cell cytotoxicity, dose response, cytotoxicity control for non-replicating M. tuberculosis project, secondary assay (AID 492998)", "type": "functional, VeroE6", "conditions": "Vero C1008"}, "Large T antigen": {"target": "Large T antigen (Simian virus 40, UniProt P03070)", "sequence (P03070 whole entry)": "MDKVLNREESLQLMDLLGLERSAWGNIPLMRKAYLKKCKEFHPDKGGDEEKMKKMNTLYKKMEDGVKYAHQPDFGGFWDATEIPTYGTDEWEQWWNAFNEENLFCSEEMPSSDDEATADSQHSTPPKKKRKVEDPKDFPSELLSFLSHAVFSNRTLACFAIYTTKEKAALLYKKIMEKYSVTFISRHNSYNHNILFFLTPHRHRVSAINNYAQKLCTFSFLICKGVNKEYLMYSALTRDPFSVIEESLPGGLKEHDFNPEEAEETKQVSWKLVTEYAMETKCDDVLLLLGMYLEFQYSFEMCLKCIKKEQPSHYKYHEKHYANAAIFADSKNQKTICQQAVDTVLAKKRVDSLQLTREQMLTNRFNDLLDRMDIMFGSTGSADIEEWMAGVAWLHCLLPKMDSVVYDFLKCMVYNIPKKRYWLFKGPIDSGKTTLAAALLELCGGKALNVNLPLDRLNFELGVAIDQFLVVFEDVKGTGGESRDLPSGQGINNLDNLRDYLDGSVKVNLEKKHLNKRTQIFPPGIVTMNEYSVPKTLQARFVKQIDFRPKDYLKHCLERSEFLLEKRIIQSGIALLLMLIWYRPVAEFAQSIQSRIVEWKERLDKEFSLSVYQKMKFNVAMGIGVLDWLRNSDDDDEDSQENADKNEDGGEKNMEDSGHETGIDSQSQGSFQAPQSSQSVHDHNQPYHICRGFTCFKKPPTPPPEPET", "type": "functional, Betapolyomavirus macacae"}, "[6]": {"target": "T1, Sentrin-specific protease 1 (Homo sapiens, UniProt Q9P0U3)", "T1 sequence (Q9P0U3 whole entry)": "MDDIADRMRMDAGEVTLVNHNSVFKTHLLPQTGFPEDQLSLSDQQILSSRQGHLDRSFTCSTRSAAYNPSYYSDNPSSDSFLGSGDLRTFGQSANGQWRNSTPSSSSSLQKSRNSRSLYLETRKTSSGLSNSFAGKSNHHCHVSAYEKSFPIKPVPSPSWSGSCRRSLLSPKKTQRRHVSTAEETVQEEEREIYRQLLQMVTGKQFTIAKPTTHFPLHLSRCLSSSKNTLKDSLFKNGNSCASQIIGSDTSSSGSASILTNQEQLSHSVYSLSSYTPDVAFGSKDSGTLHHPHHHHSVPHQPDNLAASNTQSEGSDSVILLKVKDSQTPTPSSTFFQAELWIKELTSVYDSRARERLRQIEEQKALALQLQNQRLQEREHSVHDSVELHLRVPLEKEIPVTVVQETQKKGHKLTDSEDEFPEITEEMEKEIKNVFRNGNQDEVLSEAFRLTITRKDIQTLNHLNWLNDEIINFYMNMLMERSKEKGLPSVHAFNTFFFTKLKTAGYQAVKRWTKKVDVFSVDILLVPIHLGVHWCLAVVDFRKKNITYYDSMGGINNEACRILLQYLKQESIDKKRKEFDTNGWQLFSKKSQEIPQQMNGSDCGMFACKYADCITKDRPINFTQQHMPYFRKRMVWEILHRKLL", "assay": "SENP1 catalytic domain blockers, concentration series – biochemical, kinetic FRET, dose response (AID 651697)", "type": "functional", "conditions": "read-out: IC50_Mean"}, "[7]": {"target": "T1, Sentrin-specific protease 1", "assay": "Dose response confirmation of small molecule inhibitors of the catalytic domain of the SUMO protease, SENP1 in a FRET assay.", "type": "functional", "conditions": "read-out: IC50_Mean"}, "[8]": {"target": "T2, Rac GTPase-activating protein 1 (Homo sapiens, UniProt Q9H0H5)", "T2 sequence (Q9H0H5 whole entry)": "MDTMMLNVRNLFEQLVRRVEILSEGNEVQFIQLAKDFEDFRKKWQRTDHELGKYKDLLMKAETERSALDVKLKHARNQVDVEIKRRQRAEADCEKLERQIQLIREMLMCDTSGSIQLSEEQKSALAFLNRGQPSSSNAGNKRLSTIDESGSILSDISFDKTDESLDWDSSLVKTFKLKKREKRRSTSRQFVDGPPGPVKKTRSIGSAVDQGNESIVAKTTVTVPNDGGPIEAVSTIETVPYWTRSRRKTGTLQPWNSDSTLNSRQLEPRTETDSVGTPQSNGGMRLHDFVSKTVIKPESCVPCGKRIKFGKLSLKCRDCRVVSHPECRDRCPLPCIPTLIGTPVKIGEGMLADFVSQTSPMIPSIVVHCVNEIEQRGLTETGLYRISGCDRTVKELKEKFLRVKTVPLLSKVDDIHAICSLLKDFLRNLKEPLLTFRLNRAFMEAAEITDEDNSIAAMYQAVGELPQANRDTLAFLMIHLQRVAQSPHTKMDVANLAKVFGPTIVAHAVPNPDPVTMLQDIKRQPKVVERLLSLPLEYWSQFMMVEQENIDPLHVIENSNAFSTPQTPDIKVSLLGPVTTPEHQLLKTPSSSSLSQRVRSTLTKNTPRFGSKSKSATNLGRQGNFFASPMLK", "assay": "blockers of MgcRacGAP-driven Rac1 GTP hydrolysis – biochemical, ADP Hunter fluorescence, primary and confirmatory, confirmation (AID 624330)", "type": "functional"}, "Cytochrome P450 2D6 [9]": {"target": "T3, Cytochrome P450 2D6 (Homo sapiens, UniProt P10635)", "T3 sequence (P10635 whole entry)": "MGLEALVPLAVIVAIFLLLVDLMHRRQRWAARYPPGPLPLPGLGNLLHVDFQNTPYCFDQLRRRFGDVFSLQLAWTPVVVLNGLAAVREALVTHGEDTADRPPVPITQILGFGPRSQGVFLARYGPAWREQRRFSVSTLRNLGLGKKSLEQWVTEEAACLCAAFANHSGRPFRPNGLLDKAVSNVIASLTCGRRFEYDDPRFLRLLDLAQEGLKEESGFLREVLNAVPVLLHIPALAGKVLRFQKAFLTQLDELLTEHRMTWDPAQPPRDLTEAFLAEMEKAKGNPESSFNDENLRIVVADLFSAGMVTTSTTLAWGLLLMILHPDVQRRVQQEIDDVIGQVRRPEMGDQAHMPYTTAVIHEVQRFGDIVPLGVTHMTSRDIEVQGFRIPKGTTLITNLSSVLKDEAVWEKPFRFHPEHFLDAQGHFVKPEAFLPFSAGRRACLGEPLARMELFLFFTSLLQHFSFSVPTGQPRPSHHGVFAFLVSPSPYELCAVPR"}, "Cytochrome P450 2D6 [10]": {"target": "T3, Cytochrome P450 2D6", "remark": "listed apart in the source"}, "[11]": {"target": "DNA dC->dU-editing enzyme APOBEC-3A (Homo sapiens, UniProt P31941)", "sequence (P31941 whole entry)": "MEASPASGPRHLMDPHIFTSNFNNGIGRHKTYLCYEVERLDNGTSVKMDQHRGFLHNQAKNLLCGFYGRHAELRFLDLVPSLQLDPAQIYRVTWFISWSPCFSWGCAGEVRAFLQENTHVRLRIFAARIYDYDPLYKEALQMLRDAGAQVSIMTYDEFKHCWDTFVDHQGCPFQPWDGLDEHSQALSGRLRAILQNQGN", "assay": "Dose Response confirmation of small molecule APOBEC3A DNA Deaminase Inhibitors via a fluorescence-based single-stranded DNA deaminase assay. [Related pubchem assays (depositor defined):AID493011, AID493024]", "type": "functional"}, "[12]": {"target": "DNA dC->dU-editing enzyme APOBEC-3G (Homo sapiens, UniProt Q9HC16)", "sequence (Q9HC16 whole entry)": "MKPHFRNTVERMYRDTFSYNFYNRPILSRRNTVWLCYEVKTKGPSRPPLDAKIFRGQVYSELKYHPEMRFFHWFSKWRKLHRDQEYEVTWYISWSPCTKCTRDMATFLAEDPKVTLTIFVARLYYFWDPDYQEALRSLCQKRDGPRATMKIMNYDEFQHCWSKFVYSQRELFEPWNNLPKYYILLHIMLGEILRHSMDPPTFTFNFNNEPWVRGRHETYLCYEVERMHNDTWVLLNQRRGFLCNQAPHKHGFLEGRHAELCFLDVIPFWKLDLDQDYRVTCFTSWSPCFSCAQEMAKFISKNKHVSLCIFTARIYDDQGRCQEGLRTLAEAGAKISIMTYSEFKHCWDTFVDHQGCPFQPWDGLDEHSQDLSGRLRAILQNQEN", "type": "functional"}, "Cytochrome P450 2C9": {"target": "Cytochrome P450 2C9 (Homo sapiens, UniProt P11712)", "sequence (P11712 whole entry)": "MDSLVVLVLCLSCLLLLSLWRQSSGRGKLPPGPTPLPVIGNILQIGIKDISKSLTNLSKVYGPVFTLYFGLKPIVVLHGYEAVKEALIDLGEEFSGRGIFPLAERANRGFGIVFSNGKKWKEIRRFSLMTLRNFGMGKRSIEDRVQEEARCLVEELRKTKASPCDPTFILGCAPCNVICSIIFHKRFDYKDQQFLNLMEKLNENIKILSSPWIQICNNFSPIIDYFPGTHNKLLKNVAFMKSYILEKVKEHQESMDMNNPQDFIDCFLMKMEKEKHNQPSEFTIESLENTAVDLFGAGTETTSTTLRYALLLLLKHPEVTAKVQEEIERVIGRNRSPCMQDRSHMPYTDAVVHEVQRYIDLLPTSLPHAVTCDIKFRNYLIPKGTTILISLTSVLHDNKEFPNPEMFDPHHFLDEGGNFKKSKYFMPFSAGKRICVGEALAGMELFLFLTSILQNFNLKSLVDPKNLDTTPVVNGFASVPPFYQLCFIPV"}, "Cytochrome P450 2C19": {"target": "Cytochrome P450 2C19 (Homo sapiens, UniProt P33261)", "sequence (P33261 whole entry)": "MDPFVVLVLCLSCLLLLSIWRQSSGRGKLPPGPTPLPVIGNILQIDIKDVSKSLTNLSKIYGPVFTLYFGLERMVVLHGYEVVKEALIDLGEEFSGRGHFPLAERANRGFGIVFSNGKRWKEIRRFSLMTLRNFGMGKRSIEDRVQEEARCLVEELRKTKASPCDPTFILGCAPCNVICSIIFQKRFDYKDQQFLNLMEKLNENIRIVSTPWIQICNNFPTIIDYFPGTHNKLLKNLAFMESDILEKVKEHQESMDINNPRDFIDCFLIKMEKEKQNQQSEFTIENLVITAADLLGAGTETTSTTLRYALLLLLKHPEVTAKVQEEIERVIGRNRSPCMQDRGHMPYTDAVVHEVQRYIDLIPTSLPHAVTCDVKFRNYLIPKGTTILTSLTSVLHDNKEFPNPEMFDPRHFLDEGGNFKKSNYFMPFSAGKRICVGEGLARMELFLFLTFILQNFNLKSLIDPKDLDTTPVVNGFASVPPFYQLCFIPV", "assay": "Cytochrome panel assay with activity outcomes. Panel member name: p450-cyp2c19 Compounds with AC50 equal or less than 10 uM are considered active", "type": "functional"}, "[13]": {"target": "T4, Replicative DNA helicase DnaB (Mycobacterium tuberculosis, UniProt P9WMR3)", "T4 sequence (P9WMR3 whole entry)": "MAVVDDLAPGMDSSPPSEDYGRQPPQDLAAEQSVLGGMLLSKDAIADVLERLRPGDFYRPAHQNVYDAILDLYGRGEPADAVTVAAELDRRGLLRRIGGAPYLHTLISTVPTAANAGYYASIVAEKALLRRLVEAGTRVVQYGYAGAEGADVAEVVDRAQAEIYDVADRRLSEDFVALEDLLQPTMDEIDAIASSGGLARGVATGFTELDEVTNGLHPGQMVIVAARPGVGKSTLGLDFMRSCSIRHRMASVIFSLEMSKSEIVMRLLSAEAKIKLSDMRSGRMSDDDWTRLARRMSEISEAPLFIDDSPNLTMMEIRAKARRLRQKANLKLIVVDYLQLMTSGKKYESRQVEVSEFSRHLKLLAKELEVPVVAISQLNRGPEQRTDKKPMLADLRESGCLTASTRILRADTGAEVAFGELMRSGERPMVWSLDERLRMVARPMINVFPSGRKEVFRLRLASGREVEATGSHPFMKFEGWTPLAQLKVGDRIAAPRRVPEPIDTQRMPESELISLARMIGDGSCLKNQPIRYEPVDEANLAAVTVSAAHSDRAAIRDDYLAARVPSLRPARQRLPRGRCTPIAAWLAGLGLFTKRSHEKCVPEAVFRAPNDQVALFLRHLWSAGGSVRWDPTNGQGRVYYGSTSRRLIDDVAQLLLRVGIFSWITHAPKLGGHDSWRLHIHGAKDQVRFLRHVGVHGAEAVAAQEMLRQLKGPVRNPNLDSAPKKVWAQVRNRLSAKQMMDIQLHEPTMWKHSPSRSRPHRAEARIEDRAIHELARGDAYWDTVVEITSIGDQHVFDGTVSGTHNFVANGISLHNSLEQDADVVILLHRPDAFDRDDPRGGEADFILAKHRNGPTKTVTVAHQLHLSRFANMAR", "assay": "DnaB intein splicing inhibitors, dose response, biochemical, cell-free fluorescence (AID 449749)", "type": "functional"}, "[14]": {"test_system": "Streptococcus sp. 'group A'", "assay": "Streptococcus pyogenes SK(-)GAS viability under kanamycin – luminescence, BacTiterGlo, confirmation, counter-screen for streptokinase expression inhibitor project, dose response (AID 1900)", "type": "functional, organism-based"}, "Protein RecA": {"target": "T5, Protein RecA (Mycobacterium tuberculosis, UniProt P9WHJ3)", "T5 sequence (P9WHJ3 whole entry)": "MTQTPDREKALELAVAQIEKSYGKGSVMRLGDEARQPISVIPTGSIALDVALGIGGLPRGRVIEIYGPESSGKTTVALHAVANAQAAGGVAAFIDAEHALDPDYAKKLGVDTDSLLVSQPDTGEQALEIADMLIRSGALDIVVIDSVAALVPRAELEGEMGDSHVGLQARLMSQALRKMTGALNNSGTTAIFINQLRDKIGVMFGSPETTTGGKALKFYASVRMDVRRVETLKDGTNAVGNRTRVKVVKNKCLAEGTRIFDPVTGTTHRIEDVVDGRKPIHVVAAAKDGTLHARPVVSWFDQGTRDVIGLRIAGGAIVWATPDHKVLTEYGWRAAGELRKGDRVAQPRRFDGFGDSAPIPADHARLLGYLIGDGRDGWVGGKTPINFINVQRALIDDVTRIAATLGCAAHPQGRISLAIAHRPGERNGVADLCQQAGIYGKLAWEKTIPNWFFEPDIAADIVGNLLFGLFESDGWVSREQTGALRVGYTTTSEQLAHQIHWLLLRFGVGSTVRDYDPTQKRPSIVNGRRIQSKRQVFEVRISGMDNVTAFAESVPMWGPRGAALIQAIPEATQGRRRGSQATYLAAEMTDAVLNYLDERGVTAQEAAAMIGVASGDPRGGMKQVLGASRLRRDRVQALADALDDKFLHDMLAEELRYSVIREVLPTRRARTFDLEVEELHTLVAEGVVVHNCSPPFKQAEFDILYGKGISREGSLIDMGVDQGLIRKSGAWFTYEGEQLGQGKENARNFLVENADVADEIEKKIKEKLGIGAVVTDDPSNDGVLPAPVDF", "assay": "Fluorescence Cell-Free Homogeneous Dose Retest to Identify Inhibitors of RecA-Intein Splicing Activity. [Related pubchem assays (depositor defined):AID2097, AID2223, AID489010, AID492950]", "type": "functional"}, "[15]": {"target": "G-protein coupled receptor 55 (Homo sapiens, UniProt Q9Y2T6)", "sequence (Q9Y2T6 whole entry)": "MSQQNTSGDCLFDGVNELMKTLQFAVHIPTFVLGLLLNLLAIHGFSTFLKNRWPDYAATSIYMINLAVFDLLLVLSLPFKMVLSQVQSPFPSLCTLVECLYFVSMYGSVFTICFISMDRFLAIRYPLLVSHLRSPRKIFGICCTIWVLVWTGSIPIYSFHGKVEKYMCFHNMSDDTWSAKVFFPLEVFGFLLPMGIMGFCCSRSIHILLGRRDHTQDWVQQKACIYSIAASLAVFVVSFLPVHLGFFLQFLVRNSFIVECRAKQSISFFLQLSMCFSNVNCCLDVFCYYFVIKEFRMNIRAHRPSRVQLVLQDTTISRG", "assay": "selective activators of receptor GPR55 – imaging, U2OS cells, beta-arrestin-GFP redistribution, primary screen (AID 1961)", "type": "functional"}, "Streptokinase A": {"target": "T6, Streptokinase A (Streptococcus pyogenes serotype M1, UniProt P10520)", "T6 sequence (P10520 whole entry)": "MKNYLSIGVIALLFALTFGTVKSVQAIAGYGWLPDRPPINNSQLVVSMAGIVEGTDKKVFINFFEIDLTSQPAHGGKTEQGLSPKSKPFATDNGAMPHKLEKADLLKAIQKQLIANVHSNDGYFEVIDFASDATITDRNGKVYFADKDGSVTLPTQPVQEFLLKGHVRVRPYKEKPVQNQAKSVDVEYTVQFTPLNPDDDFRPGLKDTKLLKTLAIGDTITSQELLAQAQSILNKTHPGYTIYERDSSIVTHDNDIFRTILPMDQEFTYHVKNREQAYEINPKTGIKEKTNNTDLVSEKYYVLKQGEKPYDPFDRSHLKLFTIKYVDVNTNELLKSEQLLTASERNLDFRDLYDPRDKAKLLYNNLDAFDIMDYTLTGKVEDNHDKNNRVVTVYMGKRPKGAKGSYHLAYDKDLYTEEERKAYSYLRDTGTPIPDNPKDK", "assay": "viability-normalized secreted streptokinase activity reduction – plasminogen activation absorbance, OD405, dose response (AID 1914)", "type": "functional, Streptococcus pyogenes M1 GAS"}, "Streptococcus": {"test_system": "Streptococcus", "assay": "GAS UMAA2166 growth inhibition – luminescence, BacTiterGlo, counter-screen for streptokinase expression inhibitor project, dose response (AID 1915);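 further: potency for reduction of bacterial viability or growth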", "type": "functional, organism-based"}}, "note": "Activity calls are given as the source filed them.", "data": [{"smiles": "C=CCC(C#Cc1ccccc1)[N+](C)(C)CC=C", "note": "(stereo not drawn)", "values": [{"measurement": "IC50", "setting": "[1]", "value": "8.7 µM (active)"}, {"measurement": "IC50", "setting": "[2]", "value": "10.7 µM (inactive)"}]}, {"smiles": "CC/C(=C\\c1oc2cc3ccccc3cc2[n+]1CC)Nc1ccccc1", "values": [{"measurement": "CC50", "setting": "[3]", "value": "16 µM (active)"}, {"measurement": "CC50", "setting": "Vero", "value": "18.7 µM (active)"}, {"measurement": "CC50", "setting": "[4]", "value": "> 20 µM (active)"}, {"measurement": "CC50", "setting": "[5]", "value": "> 20 µM (active)"}]}, {"smiles": "CC(=O)Nc1ccc(S(=O)(=O)Nc2nc3ccccc3nc2Nc2ccc(O)cc2)cc1", "values": [{"measurement": "IC50", "setting": "Large T antigen", "value": "9.57 µM (active)"}]}, {"smiles": "CCOc1cc(/C=C2\\N=C3CCCCCN3C2=O)ccc1O", "values": [{"measurement": "IC50", "setting": "[6]", "value": "9.57 µM (active)"}, {"measurement": "IC50", "setting": "[7]", "value": "7.67 µM (active)"}, {"measurement": "IC50", "setting": "Large T antigen", "value": "16.9 µM (active)"}, {"measurement": "IC50", "setting": "[8]", "value": "39.9 µM (active)"}]}, {"smiles": "Cc1ccc(NC(=O)CSc2nnc(-c3ccncc3)o2)cc1", "values": [{"measurement": "AC50", "setting": "Cytochrome P450 2D6 [9]", "value": "inconclusive"}]}, {"smiles": "C[N+](C)(C)CCN(Cc1ccc(Cl)cc1)c1ccccn1.[I-]", "values": [{"measurement": "AC50", "setting": "Cytochrome P450 2D6 [10]", "value": "0.251 µM (inconclusive)"}, {"measurement": "IC50", "setting": "[11]", "value": "2.05 µM (active)"}, {"measurement": "IC50", "setting": "[12]", "value": "2.01 µM (active)"}, {"measurement": "AC50", "setting": "Cytochrome P450 2C9", "value": "inconclusive"}, {"measurement": "AC50", "setting": "Cytochrome P450 2C19", "value": "inconclusive"}]}, {"smiles": "CC1C(=O)C(C)C(c2cc(Cl)ccc2O)NC1c1cc(Cl)ccc1O", "note": "(stereo not drawn)", "values": [{"measurement": "AC50", "setting": "[13]", "value": "4.77 µM (active)"}, {"measurement": "EC50", "setting": "[14]", "value": "1.4 µM (active)"}, {"measurement": "EC50", "setting": "Protein RecA", "value": "8.24 µM (active)"}, {"measurement": "EC50", "setting": "[15]", "value": "> 32 µM (inactive)"}, {"measurement": "EC50", "setting": "Streptokinase A", "value": "> 150 µM (not active)"}, {"measurement": "EC50", "setting": "Streptococcus", "value": "11.5 µM (active)"}]}]}
